System: ADN
Test: Association with DNA, ethidium bromide fluorescence
Assay type: binding
Conditions: 6 nmoles d'agent transfectant/µg d'ADN, 5 µg bromure d'éthidium/ml; for fluorescence dans le chlorure de sodium NaCl à 300 mM: NaCl 300 mM; for fluorescence dans l'eau: in water
Source text: • Les purifications sur HPLC (High Performance Liquid Chromatography) ont été effectuées avec un appareil Waters LC 4000, sur une colonne Vydac C4 éluée par un gradient d'acétonitrile dans l'eau. • Les mesures de fluorescence ont été réalisées sur Perkin Elmer LS50B, en utilisant des longueurs d'onde d'excitation et d'émission respectivement de 260 nm et 590 nm. Les largeurs de fentes pour l'excitation et l'émission sont réglées à 5 nm. La valeur de fluorescence est enregistrée après ajout de 5 µg de bromure d'éthidium/ml en concentration finale. • Les spectres de résonance magnétique nucléaire (RMN) ont été enregistrés, à 300,13 MHz pour le proton ou à 75,47 MHz pour le carbone, sur un appareil Bruker MSL 300 dans le chloroforme deutérié.
Les agents transfectants selon l'invention ont été mis en solution dans l'eau à 10 mM. Les solutions ainsi obtenues sont transparentes et correspondent à une organisation sous forme de micelles de lipide cationique.
Les complexes agent tranfectant/ADN ont été réalisés suivant un rapport de 6 nmoles d'agent transfectant/µg d'ADN.

Substance	fluorescence dans le chlorure de sodium NaCl à 300 mM	fluorescence dans l'eau
méthyl-dioctadécylamido-phtalyl-6-tri-O-(amino-2'-éthyl)-2,3,4-β-D-galactopyranoside [8(b)]	60%	7%
méthyl-dioctadécylamido-succinyl-6-tri-O-(amino-2'-éthyl)-2,3,4-β-D-galactopyranoside [8(a)]	55%	6%

— EP0986568B1, “NOVEL CLASS OF NUCLEIC ACID CATIONIC TRANSFECTING AGENTS” (Aventis Pharma S.A., priority 1997, dated 1998)
